Results: ChEMBL document CHEMBL3351706, “Identification of trichostatin derivatives from Streptomyces sp. CPCC 203909” (Bioorg Med Chem Lett, 2015)

Key:
[1] = Up-regulation of transcriptional activity of human CLA-1 promoter region -1055 to -62bp transfected in HepG2 cells by luciferase reporter gene assay; type: cell-based
[2] = tested on: HEK293; experiment: Cytotoxicity against human HEK293 cells after 96 hrs by MTT assay; type: cell-based; details: HEK293, 96 h
[3] = Cytotoxicity against human LO2 cells after 96 hrs by MTT assay; type: cell-based; details: L02, 96 h
[4] = tested on: U2OS; experiment: Cytotoxicity against human U2OS cells after 96 hrs by MTT assay; type: functional, cell-based
[5] = tested on: HepG2; experiment: Cytotoxicity against human HepG2 cells after 96 hrs by MTT assay; type: functional, cell-based; details: HepG2, 96 h
[6] = tested on: HeLa; experiment: Cytotoxicity against human HeLa cells after 96 hrs by MTT assay; type: functional, cell-based

Row | Compound | EC50 [1] | IC50 [2] | IC50 [3] | IC50 [4] | IC50 [5] | IC50 [6]
1 | CNc1ccc(C(=O)[C@](C)(O)/C=C(C)/C=C/C(N)=O)cc1 | > 100 µM | > 100 µM | > 200 µM | > 200 µM | > 200 µM | > 200 µM
2 | CNc1ccc(C(=O)[C@](C)(O)/C=C(C)/C=C/C(=O)NO)cc1 | 14.3 µM | 14.2 µM | 15.5 µM | > 200 µM | > 200 µM | > 200 µM
3 | CC(/C=C/C(N)=O)=C\[C@@](C)(O)C(=O)c1ccc(N(C)C)cc1 | > 100 µM | > 100 µM | > 200 µM | > 200 µM | > 200 µM | > 200 µM
4 | CC(=C/[C@@H](C)C(=O)c1ccc(N(C)C)cc1)/C=C/C(=O)O | > 100 µM | > 100 µM | > 200 µM | > 200 µM | > 200 µM | > 200 µM
5 | CC(/C=C/C(N)=O)=C\[C@@H](C)C(=O)c1ccc(N(C)C)cc1 | 2.39 µM | 26.2 µM | 29.1 µM | > 200 µM | > 200 µM | > 200 µM
6 | CNC(=O)/C=C/C(C)=C/[C@@H](C)C(=O)c1ccc(N(C)C)cc1 | 78.8 µM | 8.14 µM | 23.9 µM | > 200 µM | > 200 µM | > 200 µM
7 | CC(/C=C/C(=O)NO[C@H]1O[C@H](CO)[C@@H](O)[C@H](O)[C@H]1O)=C\[C@@H](C)C(=O)c1ccc(N(C)C)cc1 | 48.2 µM | > 100 µM | > 200 µM | > 200 µM | > 200 µM | > 200 µM
8 | CC(/C=C/C(=O)NO[C@@H]1O[C@H](CO)[C@@H](O)[C@H](O)[C@H]1O)=C\[C@@H](C)C(=O)c1ccc(N(C)C)cc1 | 46 µM | > 100 µM | > 200 µM | > 200 µM | > 200 µM | > 200 µM
9 | CC(/C=C/C(=O)O)=C\[C@@H](C)C(=O)c1ccc(N(C)C)cc1 [TRICHOSTATIC ACID] | > 100 µM | 86.6 µM | 89.2 µM | > 200 µM | > 200 µM | > 200 µM
10 | CC(/C=C/C(=O)NO)=C\[C@@H](C)C(=O)c1ccc(N(C)C)cc1 [TRICHOSTATIN] | 0.38 µM | 0.16 µM | 0.21 µM | 14.9 µM | 0.96 µM | 0.85 µM
